Drawing on patent US20050282810A1, “Oxindole derivatives” (priority 2000, published 2005), this text covers IC50 and melting point for six compounds.

Some results are limits rather than exact numbers.

T1 sequence (P04629 440-796 limits assumed, species assumed): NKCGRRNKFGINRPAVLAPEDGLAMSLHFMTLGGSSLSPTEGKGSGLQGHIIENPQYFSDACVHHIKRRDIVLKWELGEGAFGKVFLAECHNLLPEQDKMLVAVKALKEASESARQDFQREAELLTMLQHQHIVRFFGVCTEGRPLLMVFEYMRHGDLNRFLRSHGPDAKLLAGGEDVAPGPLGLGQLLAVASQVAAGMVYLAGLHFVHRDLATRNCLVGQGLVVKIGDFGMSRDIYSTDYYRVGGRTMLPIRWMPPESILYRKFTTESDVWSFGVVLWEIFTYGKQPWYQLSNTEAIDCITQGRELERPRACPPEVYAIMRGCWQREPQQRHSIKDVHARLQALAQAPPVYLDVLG

One data set concerns the target T1, TrkA (Homo sapiens, UniProt P04629).
T1 construct: The enzyme is a GST-fusion of the intracellular domain expressed in SF9 cells; GST; host or cells: SF9 insect cells
Kind of data set: TrkA tyrosine kinase substrate phosphorylation assay (Src peptide, 33P-ATP, p81 filter plates). It is filed as biochemical. Particulars: GST-fusion of TrkA intracellular domain, 30 uM ATP, 50 uM Src peptide, RT 120 min. The protocol: The compounds of the present invention have valuable pharmacologic properties. Different compounds from this class are particularly effective at inhibiting the trkA kinase enzyme at concentrations that range from 0.0001 to 1 μM and additionally show specificity relative to other kinases. Substrate phosphorylation assays were carried out as follows:
Screening format: Tyrosine kinase activity is being measured using a synthetic peptide substrate. The enzyme is a GST-fusion of the intracellular domain expressed in SF9 cells. The enzyme is expressed and purified by Regeneron. The enzyme is preincubated with cold ATP and Mg to allow autophosphorylation prior to running the screen. This increases the initial rate of catalysis approximately 3 fold. The assay is performed in 96 well microtitre plates, and reaction products are detected following filtration through millipore p81 phosphocellulose plates.
The IC50 is the midpoint of a concentration-inhibition curve. A low value points to greater potency in that assay. As for `O=C1Nc2ccccc2/C1=C/Nc1ccc2[nH]c(=O)[nH]c2c1` [Example 1, 5-{[(Z)-(2-oxo-1,2-dihydro-3H-indol-3-ylidene)methyl]amino}-1,3-dihydro-2H-benzimidazol-2-one], the IC50 is less than 0.01 µM.

The compound `O=C1Nc2ccccc2/C1=C/Nc1ccc(-n2cncn2)cc1` [Example 2, (3Z)-3-{[4-(1H-1,2,4-triazol-1-yl)anilino]-methylene}-1,3-dihydro-2H-indol-2-one] returned an IC50 of less than 0.01 µM.

Consider `CCC1(c2ccc(N/C=C3\C(=O)Nc4ccccc43)cc2)CCC(=O)NC1=O` (stereo not shown) [Example 3, 3-ethyl-3-(4-{[(Z)-(2-oxo-1,2-dihydro-3H-indol-3-ylidene)methyl]amino}phenyl)-2,6-piperidinedione], for which the half-inhibitory concentration (IC50) is less than 0.01 µM.

In turn, `Nc1nnc(-c2cccc(N/C=C3\C(=O)Nc4ccc5[nH]nnc5c43)c2)o1` [Example 4, (8Z)-8-{[3-(5-amino-1,3,4-oxadiazol-2-yl)anilino]methylene}-6,8-dihydro[1,2,3]triazolo[4,5-e]indol-7(3H)-one] displayed an IC50 of less than 0.01 µM.

In turn, `NC(=O)Cc1ccc(N/C=C2\C(=O)Nc3ccccc32)cc1` [Example 5, 2-(4-{[(Z)-(2-oxo-1,2-dihydro-3H-indol-3-ylidene)methyl]amino}phenyl)acetamide] had an IC50 of 0.01 to 0.1 µM.

`O=C1Nc2ccccc2/C1=C/Nc1ccc(-c2nc[nH]n2)cc1` [Example 6, (3Z)-3-{[4-(1H-1,2,4-triazol-3-yl)anilino]methylene}-1,3-dihydro-2H-indol-2-one] registered an IC50 of 0.01 to 0.1 µM.

System in a further data set: not given
Assay: not given
Settings: not given
The term melting point denotes the temperature of the solid-liquid transition. In turn, `NC(=O)Cc1ccc(N/C=C2\C(=O)Nc3ccccc32)cc1` [Example 5, 2-(4-{[(Z)-(2-oxo-1,2-dihydro-3H-indol-3-ylidene)methyl]amino}phenyl)acetamide] yielded a melting point of more than 250 °C.
